Data on twelve compounds can be found in ChEMBL document CHEMBL1201862, “PubChem BioAssay data set” (2004).

Among the test systems are SNB-75; MOLT-4; COLO 205; CCRF-CEM; ACHN; OVCAR-4; SN12C; MDA-N; K562; PC-3; HOP-62; HCC 2998; MDA-MB-435; CAKI-1; NCI-H226; MDA-MB-231; SF-539; A498; NCI-H522.
Experiment in all cases: inhibition of tumour cell growth, NCI panel, 48 h

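These data come from cells grown in 96-well plates and exposed to compound for 48 hours at five concentrations. GI50 is the concentration that inhibits growth by half.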 Active and inactive are the calls of the source. No stated cut-off is given here; in the data, active = GI50 up to about 1.1 µM and inactive = higher. Bounds are passed on as bounds.

`COc1ccc(C(=O)/C=C/c2ccc(OCCCCCCCCCCOc3ccc(/C=C/C(=O)c4ccc(OC)c(OC)c4)cc3)cc2)c(OC)c1`: the GI50 in the assay on SNB-75, in the assay with MOLT-4, with COLO 205, with CCRF-CEM, with ACHN and with OVCAR-4 was > 100 µM (inactive) each time. The GI50 in the assay with SN12C, in the assay on MDA-N, in the assay with K562, in the assay with PC-3, in the assay with HOP-62 and with HCC 2998 was > 100 µM (inactive) each time. The GI50 in the assay on MDA-MB-435, in the assay with CAKI-1, in the assay on NCI-H226, with MDA-MB-231 and in the assay with SF-539 was > 100 µM (inactive) each time.

For the compound `Oc1c(Br)cc(/C=C/c2ccnc(/C=C/c3cc(Br)c(O)c(Br)c3)c2)cc1Br`, the GI50 with SNB-75 is 19.1 µM (inactive); in the assay on MOLT-4 it was 21 µM (inactive); in the assay with COLO 205, 27.4 µM (inactive); with CCRF-CEM it was 22.6 µM (inactive); in the assay on ACHN, 28.4 µM (inactive); in the assay with OVCAR-4, 30.3 µM (inactive). For the same compound, the GI50 in the assay with SN12C was 51.3 µM (inactive); in the assay on MDA-N it was 33.5 µM (inactive); in the assay with K562, 24.2 µM (inactive); in the assay with PC-3, 16.4 µM (inactive); in the assay with HOP-62, 34.4 µM (inactive); in the assay on HCC 2998, 25.8 µM (inactive). Moreover, the GI50 was 26.7 µM (inactive) with MDA-MB-435; 18.9 µM (inactive) in the assay on A498; 35.5 µM (inactive) with CAKI-1; 21.9 µM (inactive) with MDA-MB-231; 18.5 µM (inactive) in the assay with SF-539.

Take `CCCCCCCN1C(=O)C(O)(c2ccc(C3(O)C(=O)N(CCCCCCC)c4ccccc43)s2)c2ccccc21` (configuration not stated): the GI50 in the assay with SNB-75 is 5.4 µM (inactive); in the assay with MOLT-4, 2.03 µM (inactive); in the assay on COLO 205, 1.63 µM (inactive); with CCRF-CEM it was 3.87 µM (inactive); in the assay on ACHN, 2.26 µM (inactive); with OVCAR-4, 2.01 µM (inactive). The GI50 in the assay with SN12C was 1.9 µM (inactive); in the assay on MDA-N it was 1.99 µM (inactive); with K562, 2.99 µM (inactive); in the assay on PC-3, 1.97 µM (inactive); in the assay with HOP-62 it was 1.77 µM (inactive); with HCC 2998, 1.87 µM (inactive). For the same compound, the GI50 in the assay on MDA-MB-435 is 2.05 µM (inactive); in the assay with MDA-MB-231, 2.19 µM (inactive); with SF-539, 1.79 µM (inactive).

For the compound `CSC1=N/C(=C\c2ccc(C)cc2)C(=O)N1`, the GI50 in the assay on SNB-75 is 47.4 µM (inactive); in the assay on MOLT-4, 81.5 µM (inactive); with COLO 205, > 100 µM (inactive); in the assay on CCRF-CEM, 92.5 µM (inactive); with ACHN, > 100 µM (inactive); with OVCAR-4, > 100 µM (inactive). Also, the GI50 in the assay with SN12C is > 100 µM (inactive); in the assay with MDA-N it was > 100 µM (inactive); with PC-3, 94.6 µM (inactive); in the assay with HOP-62, 39.5 µM (inactive); with HCC 2998, 66.2 µM (inactive); with MDA-MB-435, > 100 µM (inactive). For the same compound, the GI50 in the assay on NCI-H522 is 34.1 µM (inactive); in the assay on CAKI-1, > 100 µM (inactive); in the assay with NCI-H226, > 100 µM (inactive); with MDA-MB-231, 92.7 µM (inactive); with SF-539, 41.9 µM (inactive).

For `N#Cc1c(-c2cccc(Br)c2)cc(-c2ccc(Cl)cc2)nc1N`, the GI50 with MOLT-4 was 15.8 µM (inactive); in the assay on COLO 205, 13.7 µM (inactive); in the assay with CCRF-CEM it was 27.2 µM (inactive); in the assay on ACHN, 21.8 µM (inactive); in the assay on OVCAR-4, 0.514 µM (active); in the assay on SN12C, 19.1 µM (inactive). In addition, the GI50 with MDA-N is 20.5 µM (inactive); in the assay with K562 it was 25.6 µM (inactive); in the assay with PC-3, 22.2 µM (inactive); in the assay on HOP-62 it was 23.5 µM (inactive); in the assay on HCC 2998, 17.3 µM (inactive); in the assay on MDA-MB-435, 18.2 µM (inactive). Moreover, the GI50 is 14.1 µM (inactive) in the assay with NCI-H522, 25.6 µM (inactive) in the assay with CAKI-1, 17.5 µM (inactive) in the assay on NCI-H226 and 18.1 µM (inactive) in the assay with SF-539.

For `CCOC(=O)C1=c2[nH]c3cccc4cccc(c43)n2C=C(C(C)=O)C1CC(C)=O` (configuration not stated), the GI50 was > 100 µM (inactive) with SNB-75; > 100 µM (inactive) in the assay with MOLT-4; 35.1 µM (inactive) in the assay on COLO 205; 19.9 µM (inactive) in the assay with CCRF-CEM; 80 µM (inactive) in the assay on ACHN; > 100 µM (inactive) in the assay on OVCAR-4. Also, the GI50 is > 100 µM (inactive) with SN12C; > 100 µM (inactive) in the assay with MDA-N; > 100 µM (inactive) in the assay with K562; > 100 µM (inactive) in the assay on PC-3; 68.7 µM (inactive) in the assay on HOP-62; 62.7 µM (inactive) in the assay on HCC 2998. Further, the GI50 was 52.6 µM (inactive) with MDA-MB-435, 86.1 µM (inactive) with A498 and 56.6 µM (inactive) in the assay with CAKI-1.

Take `O=[N+]([O-])c1ccc(-n2nc3ccc4c(no[n+]4[O-])c3n2)cc1`: the GI50 is 61.7 µM (inactive) in the assay on SNB-75; 74.6 µM (inactive) in the assay with MOLT-4; > 100 µM (inactive) in the assay with COLO 205; > 100 µM (inactive) in the assay with CCRF-CEM; 7.11 µM (inactive) in the assay with ACHN; > 100 µM (inactive) in the assay on OVCAR-4. For the same compound, the GI50 was > 100 µM (inactive) with SN12C; > 100 µM (inactive) in the assay on MDA-N; > 100 µM (inactive) in the assay on K562; 5.55 µM (inactive) with PC-3; 35.2 µM (inactive) with HOP-62; > 100 µM (inactive) in the assay with HCC 2998. Further, the GI50 in the assay on MDA-MB-435, in the assay on NCI-H522, with CAKI-1, in the assay with NCI-H226, in the assay on MDA-MB-231 and with SF-539 was > 100 µM (inactive) each time.

For `COC(=O)c1c(C)[nH]c2c1C(=O)C(=O)c1nc(C)c(C)nc1-2`, the GI50 was 1.21 µM (inactive) in the assay on SNB-75; 7.66 µM (inactive) in the assay with MOLT-4; 8.63 µM (inactive) in the assay on COLO 205; 5.04 µM (inactive) in the assay with CCRF-CEM; 2.85 µM (inactive) in the assay with ACHN; 12.9 µM (inactive) in the assay on OVCAR-4. In addition, the GI50 in the assay on SN12C was 2.84 µM (inactive); in the assay on MDA-N, 5.37 µM (inactive); in the assay with K562, 9.38 µM (inactive); with PC-3 it was 7.53 µM (inactive); in the assay on HOP-62 it was 5.98 µM (inactive); in the assay on HCC 2998, 8.85 µM (inactive). Further, the GI50 is 10.7 µM (inactive) in the assay on MDA-MB-435; 2.92 µM (inactive) in the assay on A498; 3.48 µM (inactive) in the assay on NCI-H522; 6.75 µM (inactive) with CAKI-1; 11.8 µM (inactive) in the assay with NCI-H226; 10.4 µM (inactive) in the assay with SF-539.

Consider `CCOC(=O)c1c(C)[n+]([O-])c2cc(Cl)c(Cl)cc2[n+]1[O-]`, for which the GI50 with MOLT-4 was 16.2 µM (inactive); in the assay on COLO 205 it was 19.7 µM (inactive); in the assay with CCRF-CEM, 18.5 µM (inactive); in the assay on ACHN, 29.3 µM (inactive); in the assay with OVCAR-4, 17.5 µM (inactive); with SN12C, 20.4 µM (inactive). For the same compound, the GI50 is 31 µM (inactive) in the assay with MDA-N; 31.4 µM (inactive) in the assay with K562; 26.9 µM (inactive) in the assay on PC-3; 21 µM (inactive) in the assay on HOP-62; 13.7 µM (inactive) in the assay on HCC 2998; 18.6 µM (inactive) in the assay with MDA-MB-435. Moreover, the GI50 with A498 was 20.3 µM (inactive); in the assay with CAKI-1, 18 µM (inactive); in the assay with NCI-H226, 12 µM (inactive); with MDA-MB-231, 21.1 µM (inactive); in the assay with SF-539 it was 26.1 µM (inactive).

Turning to `O=c1n(-c2ccccc2)c(=O)n2n1C1Cc3ccccc3C12` (configuration not stated), the GI50 with SNB-75 was 69.5 µM (inactive); in the assay on MOLT-4 it was > 100 µM (inactive); in the assay with COLO 205, > 100 µM (inactive); with CCRF-CEM it was > 100 µM (inactive); with ACHN, > 100 µM (inactive); in the assay on SN12C, > 100 µM (inactive). The GI50 with MDA-N, with K562, in the assay on PC-3, in the assay with HOP-62, in the assay on MDA-MB-435 and with A498 was > 100 µM (inactive) each time. The GI50 in the assay with CAKI-1, in the assay on NCI-H226, in the assay on MDA-MB-231 and with SF-539 was > 100 µM (inactive) throughout.

For the compound `Cc1ccc(Cc2nn(C)c(=O)n2N)cc1`, the GI50 with COLO 205, in the assay on ACHN, with OVCAR-4, with SN12C, in the assay on MDA-N and in the assay on K562 was > 100 µM (inactive) each time. Besides, the GI50 in the assay on PC-3, in the assay with HCC 2998, in the assay on MDA-MB-435, in the assay with A498, in the assay with CAKI-1 and with NCI-H226 was > 100 µM (inactive) each time. For the same compound, the GI50 in the assay on MDA-MB-231 and in the assay with SF-539 was > 100 µM (inactive) throughout.

With `Fc1ccc(Oc2nc3ccc(C(F)(F)F)cc3nc2-c2ccccc2)cc1`, the GI50 in the assay with SNB-75 was 27.9 µM (inactive); in the assay with MOLT-4, 46 µM (inactive); in the assay with COLO 205 it was > 100 µM (inactive); in the assay on CCRF-CEM, > 10 µM (inactive); in the assay with ACHN, 44.8 µM (inactive); with OVCAR-4 it was 60.5 µM (inactive). In addition, the GI50 in the assay on SN12C was > 100 µM (inactive); in the assay with MDA-N it was 99.5 µM (inactive); in the assay on K562, > 10 µM (inactive); in the assay on PC-3 it was > 100 µM (inactive); in the assay on HOP-62, 24.4 µM (inactive); in the assay with HCC 2998, 14.5 µM (inactive). In addition, the GI50 in the assay with MDA-MB-435 is 76.2 µM (inactive); in the assay on NCI-H522 it was > 100 µM (inactive); with CAKI-1 it was 27.9 µM (inactive); with MDA-MB-231, > 100 µM (inactive); in the assay on SF-539 it was 30.8 µM (inactive).
